# Results from PMC2375353, “Effective treatment of experimental U-87MG human glioblastoma in nude mice with a targeted cytotoxic bombesin analogue, AN-215” (British Journal of Cancer, 2002).
# Entries after “also recorded” stand apart in the source; their conditions may differ.
# Key:
# [1] = target: BN/GRP receptor on U-87MG tumour membranes; assay: Displacement of 125I-[Tyr4]BN binding (radioreceptor assay) on U-87MG tumour membranes; parameters: species or system human
# Protocol: Binding characteristics of BN receptors on membrane preparations from U-87MG tumours were determined by ligand competition assays using ^125I-labelled [Tyr^4]BN, as reported earlier ([Halmos and Schally, 1997]). […] IC50 value was calculated with a computerized curve fitting programme and is defined as the concentration of AN-215 causing a 50% inhibition of ^125I-[Tyr^4]BN binding.
# [2] = system: U-87MG human glioblastoma xenografted into nude mice; assay: Experiment 2: growth of s.c. U-87MG xenografts, with BN receptor blockade; assay type: in vivo, human tumour in male athymic nude mice
# Protocol: Human glioblastoma cell line U-87MG was obtained from American Type Culture Collection (Manassas, VA, USA) and cultured as described ([Pinski et al, 1994]). Male athymic (Ncr nu/nu) nude mice, approximately 6-weeks-old on arrival, were obtained from the National Cancer Institute (Frederick Cancer Research and Development Center, Frederick, MD, USA), and housed in laminar air-flow cabinets under pathogen-free conditions with a 12 h light/12 h dark schedule, and fed autoclaved standard chow and water ad libitum. Xenografts were initiated by s.c. injection of 12×10^6 U-87MG cells into the right flanks of five male nude mice. Tumours resulting after 2 weeks were aseptically dissected, mechanically minced, and 3-mm^3 pieces of tumour tissue were transplanted s.c. with a trocar needle. The take rate was 100%. All experiments were performed in accordance with institutional ethical guidelines of animal care and were essentially in agreement with [UKCCCR guidelines (1998)] for the welfare of animals in experimental neoplasia.
# Experiment 2 was started when U-87MG tumours had grown to 70–84 mm^3 in volume. The animals were divided into the following treatment groups: group 1 (10 mice), control, vehicle solution; group 2 (10 mice), analogue AN-215; group 3 (five mice), unconjugated mixture of the cytotoxic radical AN-201 and BN antagonist RC-3095. All compounds were injected i.v. at 150 nmol kg^−1 of BW on days 1, 10, and 17. In addition, one group of tumour-bearing mice received an i.v. injection of 200 μg of BN antagonist RC-3095 15 min before each administration of AN-215 at a dose of 150 nmol kg^−1 of BW on days 1, 10 and 17 as in the case of group 2. The experiment was terminated on day 20 as described above.
# Data are expressed as mean±s.e. Differences between mean values were evaluated by two-tailed Student's t-test, P<0.05 being considered significant.
# [3] = RC-3095 200 μg/mouse i.v. 15 min before AN-215 150 nmol kg^-1 days 1, 10, 17
substance,measurement,setting,value
Gln-Trp-Ala-Val-Gly-His-Leu-ψ(CH2-NH)-Leu-NH2 [AN-215],IC50,"[1]; U-87MG tumour membranes, AN-215 10^-6–10^-12 M, mean±s.e., read-out: IC50, inhibition of specific 125I-[Tyr4]BN binding",4 ± 0.1 nM
same,Binding affinity to BN/GRP receptor protein,[1]; U-87MG tumours,high binding affinity
same,Tumour doubling time,"[2]; 150 nmol kg^-1 i.v. days 1, 10, 17, 20 days, no pretreatment, control 4.5±0.2",6.6 ± 1.0 days
same,Antitumour effect after BN receptor blockade,[2]; RC-3095 200 μg i.v. 15 min before AN-215 150 nmol kg^-1,could be blocked by pretreatment with an excess of a bombesin antagonist; also recorded: non-significant growth inhibition of U-87MG glioblastomas
same,Growth inhibition after RC-3095 pretreatment,[2]; [3],22%
same,Tumour doubling time after RC-3095 pretreatment,[2]; [3],4.7 ± 02 days
